Results published in PMC8579695, “The Stringent Response Inhibits 70S Ribosome Formation in Staphylococcus aureus by Impeding GTPase-Ribosome Interactions” (mBio, 2021).
Read-outs that look alike come from different tables or passages of the source.

Assays:
Era = Era (Staphylococcus aureus, UniProt Q2FGF6); assay: DRaCALA binding of 32P-labeled nucleotides to 6×His-tagged Era; settings: for Bmax, Era: Bmax values indicate the fraction bound
Method: (§1) The RA-GTPases RsgA, Era, RbgA, and HflX can bind to the guanosine nucleotides GTP, GDP, ppGpp, and pppGpp. Our previous work observed higher binding affinities for ppGpp over GTP, pointing toward a difference in binding between 5′ di- or triphosphate nucleotides ([27]). […] Furthermore, these previous experiments were performed using recombinant proteins fused to large MBP tags, which could impact binding affinity determination. To examine the nucleotide binding affinities of these RA-GTPases for GDP in comparison to ppGpp, pppGpp, and GTP, and in the absence of a large tag, we used a differential radial capillary action of ligand assay (DRaCALA) with recombinant RsgA, RbgA, Era, and HflX fused to a smaller 6× His tag (Fig. 1B; see also Fig. S2A to C in the supplemental material) ([36]). In each case, the affinities of 5′ diphosphate-containing GDP and ppGpp were similar in the low μM range and were 2- to 6-fold higher than the affinities of either GTP or pppGpp (Table 1).
(§2) Supplementary file : FIG S2 Examination of the binding of GDP, ppGpp, GTP, and pppGpp to RA-GTPases by DRaCALA. (A to C) Determination of binding affinities and Kd values for ^32P-labeled nucleotides to purified recombinant 6×His-tagged RsgA (A), Era (B), and HflX (C). Kd values were determined from the binding curves as previously described ([36]). (D to F) DRaCALA binding assay of recombinant RsgA (D), Era (E), and HflX (F) binding to ^32P-labeled GTP, ppGpp, and pppGpp in the presence or absence of 100 μM cold competitors (GTP, GDP, ppGpp, pppGpp, and ATP). All experiments were carried out in triplicate, with error bars representing standard deviations. Download FIG S2, TIF file, 0.9 MB.
(§3) The synthesis of (p)ppGpp and differential radial capillary action of ligand assay (DRaCALA) binding and competition assays were performed as described previously ([27]), using recombinant, 6×His-tagged protein at the concentrations specified in the figure legends.

[1] = molecular target: Era association to the 30S ribosomal subunit (Staphylococcus aureus, UniProt Q2FGF6); assay: In vitro ribosome association assay (sucrose gradient, α-His Western immunoblot), Era; type: binding; settings: 40 μM nucleotide; compared to apo, GTP, or GMPPNP-bound states
Text: (§4) It is well characterized that rRNA transcription decreases during the stringent response ([39]). In addition, the GTPase activity of ribosome assembly cofactors is inhibited by (p)ppGpp, both of which contribute to a reduction in mature ribosomes within the cell ([27]). To examine mechanistically how (p)ppGpp-GTPase interactions affect the ability of RA-GTPases to associate with ribosomal subunits, we examined the association of each GTPase to either the 30S or 50S ribosomal subunit in the presence of GDP, GTP, ppGpp, and pppGpp, as well as GMPPNP, a nonhydrolyzable analogue of GTP. The production and isolation of immature subunits, which can comprise several different immature states, introduces a large degree of heterogeneity, and so here we, and others, use homogenous mature particles as a system to examine the binding event, rather than the role of GTPase activity in downstream maturation ([11], [12], [29], [40], [41]). His-tagged GTPases were preincubated with highly pure, salt-washed 70S S. aureus ribosomes in a low-magnesium buffer to encourage ribosomal subunit dissociation, and the amount of each GTPase associated with each of the subunits was quantified by Western immunoblotting with anti-His antibodies after sucrose gradient separation. […]
(§5) FIG 2 (p)ppGpp and GDP binding reduces RA-GTPase association to the ribosome. […] After subunit separation and precipitation, bound proteins were detected in the 30S fraction using HRP-conjugated α-His antibodies. […] Bound proteins were detected in the 50S fraction using HRP-conjugated α-His antibodies. […]
(§6) A 500 nM concentration of recombinant 6×His-tagged RA-GTPase was incubated at room temperature for 5 min with 200 nM S. aureus 70S ribosomes in dissociation buffer (20 mM Tris [pH 7.5], 120 mM NH4Cl, 1.5 mM MgCl2, 2 mM β-mercaptoethanol) in the apo form and in the presence of 40 μM GTP, GMPPNP, GDP, ppGpp, or pppGpp. […] Gradients were fractionated by upward displacement of 250-μl aliquots, which were analyzed for RNA content at an absorbance of 260 nm. […]

RsgA = RsgA (Staphylococcus aureus, UniProt P67682); assay: DRaCALA binding of 32P-labeled nucleotides to 6×His-tagged RsgA; settings: for Bmax, RsgA: Bmax values indicate the fraction bound
Method: as §1, §2, §3

HflX = HflX (Staphylococcus aureus, UniProt Q2FYY9); assay: DRaCALA binding of 32P-labeled nucleotides to 6×His-tagged HflX; settings: mean ± SEM; for Bmax, HflX: Bmax values indicate the fraction bound
Method: as §1, §2, §3

[2] = tested on: HflX association to the 30S and 50S ribosomal subunits; assay: In vitro ribosome association assay (sucrose gradient, α-His Western immunoblot), HflX; type: binding, Staphylococcus aureus; settings: 40 μM nucleotide; compared to apo, GTP, or GMPPNP-bound states
Text: as §4, §5, §6

Sequence of Era (Q2FGF6 whole entry, the tested form may be a part): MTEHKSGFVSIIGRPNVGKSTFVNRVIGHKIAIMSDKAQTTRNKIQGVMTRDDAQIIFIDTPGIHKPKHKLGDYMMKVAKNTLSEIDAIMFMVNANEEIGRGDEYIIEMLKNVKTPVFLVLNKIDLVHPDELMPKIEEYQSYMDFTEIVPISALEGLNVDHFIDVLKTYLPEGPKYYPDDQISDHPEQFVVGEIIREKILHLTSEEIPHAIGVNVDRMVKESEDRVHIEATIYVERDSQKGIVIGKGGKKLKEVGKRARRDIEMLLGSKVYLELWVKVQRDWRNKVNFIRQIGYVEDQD
Sequence of RsgA (P67682 whole entry): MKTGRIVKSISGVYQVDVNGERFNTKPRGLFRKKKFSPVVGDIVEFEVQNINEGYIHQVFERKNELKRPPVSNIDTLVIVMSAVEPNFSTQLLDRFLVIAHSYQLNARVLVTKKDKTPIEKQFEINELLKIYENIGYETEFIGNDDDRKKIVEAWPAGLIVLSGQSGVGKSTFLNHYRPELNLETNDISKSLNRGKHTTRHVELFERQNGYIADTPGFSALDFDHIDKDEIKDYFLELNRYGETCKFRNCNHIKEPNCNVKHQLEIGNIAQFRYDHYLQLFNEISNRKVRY
Sequence of HflX (Q2FYY9 entry or part of it): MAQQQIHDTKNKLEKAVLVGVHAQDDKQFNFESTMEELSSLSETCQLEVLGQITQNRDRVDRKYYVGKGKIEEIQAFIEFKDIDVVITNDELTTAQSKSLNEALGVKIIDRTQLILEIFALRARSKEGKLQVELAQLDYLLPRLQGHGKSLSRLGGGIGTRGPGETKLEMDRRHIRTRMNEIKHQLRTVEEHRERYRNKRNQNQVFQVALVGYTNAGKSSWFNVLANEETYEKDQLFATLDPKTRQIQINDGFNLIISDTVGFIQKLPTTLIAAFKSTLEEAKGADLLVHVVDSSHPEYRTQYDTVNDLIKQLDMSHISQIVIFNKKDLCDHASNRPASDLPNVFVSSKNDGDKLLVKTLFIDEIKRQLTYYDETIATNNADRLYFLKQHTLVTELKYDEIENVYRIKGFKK
Sequence of Era association to the 30S ribosomal subunit (Q2FGF6 whole entry): as the sequence (Q2FGF6 whole entry, the tested form may be a part) above

Nc1nc2c(ncn2[C@@H]2O[C@H](COP(=O)(O)OP(=O)(O)O)[C@@H](OP(=O)(O)OP(=O)(O)O)[C@H]2O)c(=O)[nH]1 [ppGpp]
Kd (Era; mean ± SEM, 32P-labeled nucleotide, 6×His-tagged protein, read-out: Kd, Era): 4.2 ± 0.6 µM
Bmax, Era (Era; mean ± SEM): 0.4 ± 0.0
reduction in ribosome binding of Era [1]: 2 fold
Kd (RsgA; mean ± SEM, 32P-labeled nucleotide, 6×His-tagged protein, read-out: Kd, RsgA): 2.2 ± 0.2 µM
Bmax, RsgA (RsgA; mean ± SEM): 0.9 ± 0.0
Kd (HflX; 32P-labeled nucleotide, 6×His-tagged protein, read-out: Kd, HflX): 3.4 ± 0.4 µM
Bmax, HflX (HflX): 0.6 ± 0.0
reduction in ribosome binding of HflX [2]: 2 fold

Nc1nc2c(ncn2[C@@H]2O[C@H](COP(=O)(O)OP(=O)(O)OP(=O)(O)O)[C@@H](OP(=O)(O)OP(=O)(O)O)[C@H]2O)c(=O)[nH]1 [pppGpp]
Kd (Era): 13.9 ± 4.7 µM
Bmax, Era (Era; mean ± SEM): 0.2 ± 0.0
reduction in ribosome binding of Era [1]: 2 fold
Kd (RsgA): 10.1 ± 2.2 µM
Bmax, RsgA (RsgA; mean ± SEM): 0.4 ± 0.0
Bmax, HflX (HflX): 0.5 ± 0.2
reduction in ribosome binding of HflX [2]: 2 fold
